Laboratory results from PubChem BioAssay (NCI).
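Briefly, cells in 96-well plates were exposed to five compound concentrations for 48 h, and endpoints were estimated by linear interpolation. GI50 is the concentration that inhibits growth by half. TGI: concentration producing complete growth inhibition.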

Key:
Experiment in all cases: growth of human tumour cells (NCI), 48 h
CAKI-1 renal = tested on: CAKI-1 renal
DU-145 prostate = tested on: DU-145 prostate
HT29 colon = tested on: HT29 colon
IGROV1 ovarian = tested on: IGROV1 ovarian
MDA-MB-435 = tested on: MDA-MB-435
NCI-H226 lung = tested on: NCI-H226 lung
OVCAR-4 ovarian = tested on: OVCAR-4 ovarian
OVCAR-8 ovarian = tested on: OVCAR-8 ovarian
SF-268 CNS = tested on: SF-268 CNS
SK-MEL-5 melanoma = tested on: SK-MEL-5 melanoma

| Compound | TGI (CAKI-1 renal) | TGI (DU-145 prostate) | TGI (HT29 colon) | TGI (IGROV1 ovarian) | TGI (MDA-MB-435) | TGI (NCI-H226 lung) | TGI (OVCAR-4 ovarian) | TGI (OVCAR-8 ovarian) | TGI (SF-268 CNS) | TGI (SK-MEL-5 melanoma) | GI50 (CAKI-1 renal) | GI50 (DU-145 prostate) | GI50 (HT29 colon) | GI50 (IGROV1 ovarian) | GI50 (MDA-MB-435) | GI50 (NCI-H226 lung) | GI50 (OVCAR-4 ovarian) | GI50 (OVCAR-8 ovarian) | GI50 (SF-268 CNS) | GI50 (SK-MEL-5 melanoma) |
| --- | --- | --- | --- | --- | --- | --- | --- | --- | --- | --- | --- | --- | --- | --- | --- | --- | --- | --- | --- | --- |
| NC(=O)CS(=O)CC(N)C(=O)O (configuration not stated) | > 100 µM | > 100 µM | > 100 µM | > 100 µM | > 100 µM | > 100 µM | > 100 µM | > 100 µM | > 100 µM | > 100 µM | – | – | – | – | – | – | – | – | – | – |
| Cc1n(CC(=O)c2ccccc2)nc2sc(N)n[n+]12 | > 100 µM | > 100 µM | > 100 µM | > 100 µM | > 100 µM | > 100 µM | > 100 µM | > 100 µM | > 100 µM | > 100 µM | – | – | – | – | – | – | – | – | – | – |
| CN(c1ccccc1Cl)S(=O)(=O)c1ccccc1[N+](=O)[O-] | > 100 µM | > 100 µM | > 100 µM | > 100 µM | > 100 µM | > 100 µM | > 100 µM | > 100 µM | > 100 µM | 28.9 µM | – | – | – | – | – | – | – | – | – | – |
| OCC(O)C(O)C(O)C(/C=N\Nc1ncnc2ccc(Br)cc12)=N/Nc1ncnc2ccc(Br)cc12 (configuration not stated) | > 100 µM | > 100 µM | > 100 µM | > 100 µM | > 100 µM | > 100 µM | > 100 µM | > 100 µM | > 100 µM | 18 µM | – | – | – | – | – | – | – | – | – | – |
| CCOC(=O)C(=Cn1c(=S)[nH]c2ccc([N+](=O)[O-])cc21)C(=O)OCC | > 100 µM | > 100 µM | > 100 µM | > 100 µM | > 100 µM | > 100 µM | > 100 µM | > 100 µM | > 100 µM | > 100 µM | – | – | – | – | – | – | – | – | – | – |
| COc1cc2c(cc1Cl)n([O-])c(C#N)c(N1CCN(c3ccc([N+](=O)[O-])cc3)CC1)[n+]2=O | > 100 µM | > 100 µM | > 100 µM | 8.29 µM | > 100 µM | > 100 µM | > 100 µM | 60.1 µM | > 84 µM | > 59.6 µM | – | – | – | – | – | – | – | – | – | – |
| O=C(Nc1cccc(-n2ccc3c(NC(=O)c4ccccc4)nccc32)c1)c1cc(N2CCOCC2)cc(C(F)(F)F)c1 | – | – | 0.446 µM | > 100 µM | 0.0688 µM | – | > 100 µM | > 100 µM | > 100 µM | 0.249 µM | 0.0641 µM | 0.164 µM | 0.0312 µM | 0.235 µM | 0.0253 µM | 0.36 µM | 0.175 µM | 0.286 µM | 0.264 µM | 0.0671 µM |
| CCOc1cc(C2SCC(=O)N2c2nc3cc4sc(N5C(=O)CSC5c5ccc(O)c(OCC)c5)nc4cc3s2)ccc1O (configuration not stated) | > 100 µM | > 100 µM | > 100 µM | > 100 µM | > 100 µM | > 94.4 µM | > 100 µM | > 100 µM | > 100 µM | > 100 µM | – | – | – | – | – | – | – | – | – | – |
| C[C@H](CCC1=NCCN1)[C@H]1CC[C@H]2[C@@H]3CC[C@@H]4C[C@H](O)CC[C@]4(C)[C@H]3C[C@H](O)[C@]12C | 43.8 µM | 28.9 µM | 22.3 µM | 21.9 µM | 28.9 µM | 31 µM | 33.6 µM | 28.8 µM | 20.5 µM | 24.5 µM | – | – | – | – | – | – | – | – | – | – |
| CCOC(=O)C(NCc1cccc(C(F)(F)F)c1)(NC(=O)c1ccccc1)C(F)(F)F (configuration not stated) | 41.2 µM | > 100 µM | 48.5 µM | 66.9 µM | 79 µM | > 100 µM | > 100 µM | > 100 µM | > 100 µM | > 100 µM | – | – | – | – | – | – | – | – | – | – |
| Cc1cccc2c1C/C(=C\c1cccc(C)c1C(=O)O)C2=O | > 100 µM | > 100 µM | > 100 µM | > 100 µM | > 100 µM | > 100 µM | > 100 µM | > 100 µM | > 100 µM | > 100 µM | – | – | – | – | – | – | – | – | – | – |
| COc1cc(/C=C/C(=O)OC[C@H](Br)[C@H](OC(C)=O)c2ccc3c(c2)OCO3)cc(OC)c1OC | > 100 µM | > 100 µM | > 100 µM | > 100 µM | > 100 µM | > 100 µM | > 100 µM | > 100 µM | > 100 µM | > 100 µM | – | – | – | – | – | – | – | – | – | – |
| C#CCOC(=O)C(N)CCCN=C(N)N (configuration not stated) | > 100 µM | > 100 µM | > 100 µM | > 100 µM | > 100 µM | > 100 µM | > 100 µM | > 100 µM | > 100 µM | > 100 µM | – | – | – | – | – | – | – | – | – | – |
| N#Cc1nc(/C=C/c2ccccc2)oc1N | > 100 µM | > 100 µM | > 100 µM | > 100 µM | > 100 µM | > 100 µM | > 100 µM | > 100 µM | > 100 µM | > 100 µM | – | – | – | – | – | – | – | – | – | – |
| O=C(C#Cc1cn(C2CC(O)C(CO)O2)c(=O)[nH]c1=O)c1ccccc1 (configuration not stated) | > 100 µM | > 100 µM | > 100 µM | > 100 µM | > 100 µM | > 100 µM | > 100 µM | > 100 µM | > 100 µM | > 100 µM | – | – | – | – | – | – | – | – | – | – |
